Activity calls are given as the source filed them. No cut-off for these calls is given here.
Key:
[1] = system: Human immunodeficiency virus 1; assay: Antiviral activity against HIV1 bearing HIV1 NL4-3 envelope assessed as reduction in viral envelope-mediated membrane fusion by cell-based fusion assay; format: functional, organism-based
[2] = system: Human immunodeficiency virus 1; assay: Antiviral activity against HIV1 bearing HIV1 NL4-3 envelope infected in human MT2 cells assessed as inhibition of HIV-envelope packed virions at 15 uM after 72 hrs by virus production assay relative to control; format: functional; conditions: Human immunodeficiency virus 1, MT2, 72 h
[3] = system: Human immunodeficiency virus 1; assay: Antiviral activity against HIV1 bearing VSV envelope infected in human MT2 cells assessed as inhibition of VSV-envelope packed virions at 15 uM after 72 hrs by virus production assay relative to control; format: functional; conditions: Human immunodeficiency virus 1, MT2, 72 h
[4] = system: Human immunodeficiency virus 1; assay: Antiviral activity against HIV1 NL4-3 infected in human PM1 cells assessed as inhibition of viral p24 antigen production after 5 days; format: functional, organism-based; conditions: Human immunodeficiency virus 1, NL4-3, PM1, 120 h
[5] = system: Human immunodeficiency virus 1; assay: Antiviral activity against HIV1 3B infected in human MT2 cells assessed as inhibition of virus-induced cytopathic effect after 6 days by XTT assay; format: functional, organism-based; conditions: Human immunodeficiency virus 1, 3B, MT2, 144 h
[6] = Cytotoxicity against human MT2 cells after 6 days by XTT assay; format: cell-based
[7] = Cytotoxicity against human PM1 cells after 6 days by XTT assay; format: cell-based
[8] = Therapeutic index, ratio of CC50 for human MT2 cells to EC50 for HIV1 NL4-3; format: cell-based; conditions: read-out: TI
[9] = Therapeutic index, ratio of CC50 for human PM1 cells to EC50 for HIV1 NL4-3; format: cell-based; conditions: read-out: TI
[10] = Therapeutic index, ratio of CC50 for human MT2 cells to EC50 for HIV1 Ba-L; format: cell-based; conditions: read-out: TI
[11] = system: Human immunodeficiency virus 1; assay: Antiviral activity against HIV1 NL4-3 infected in human 174XCEM T-cells; format: functional, organism-based
[12] = system: Human immunodeficiency virus 1; assay: Antiviral activity against recombinant HIV1 NL4/3BFL chimeric virus infected in human MT2 cells assessed as inhibition of virus-induced CPE; format: functional, organism-based; conditions: Human immunodeficiency virus 1, NL4/3BFL
[13] = system: Human immunodeficiency virus 1; assay: Antiviral activity against recombinant HIV1 NL4/3B5'Env chimeric virus infected in human MT2 cells assessed as inhibition of virus-induced CPE; format: functional, organism-based; conditions: Human immunodeficiency virus 1, NL4/3B5'Env
[14] = system: Human immunodeficiency virus 1; assay: Ratio of EC50 for recombinant HIV1 NL4-3/3BFL chimeric virus to EC50 for parental HIV1 NL4-3 virus; format: functional
[15] = system: Human immunodeficiency virus 1; assay: Ratio of EC50 for recombinant HIV1 NL4-3/3BCt chimeric virus to EC50 for parental HIV1 NL4-3 virus; format: functional
[16] = system: Human immunodeficiency virus 1; assay: Ratio of EC50 for recombinant HIV1 NL4-3/3B5'Env chimeric virus to EC50 for parental HIV1 NL4-3 virus; format: functional
[17] = system: Human immunodeficiency virus 1; assay: Antiviral activity against parental HIV1 NL4-3 infected in human MT2 cells by virus production assay; format: functional, organism-based; conditions: Human immunodeficiency virus 1, NL4-3, MT2
[18] = system: Human immunodeficiency virus 1; assay: Antiviral activity against recombinant HIV1 NL4-3 bearing envelope with S162N, N302Y substitutions infected in human MT2 cells by virus production assay; format: functional, organism-based
[19] = system: Human immunodeficiency virus 1; assay: Antiviral activity against recombinant HIV1 NL4-3 bearing envelope with G354E, V372E, D474N substitutions infected in human MT2 cells by virus production assay; format: functional, organism-based
[20] = system: Human immunodeficiency virus 1; assay: Antiviral activity against recombinant HIV1 NL4-3 bearing envelope with G354E, D474N substitutions infected in human MT2 cells by virus production assay; format: functional, organism-based
[21] = system: Human immunodeficiency virus 1; assay: Antiviral activity against recombinant HIV1 NL4-3 bearing envelope with D474N substitution infected in human MT2 cells by virus production assay; format: functional, organism-based
[22] = system: Human immunodeficiency virus 1; assay: Antiviral activity against recombinant HIV1 NL4-3 bearing envelope with V372E substitution infected in human MT2 cells by virus production assay; format: functional, organism-based
[23] = system: Human immunodeficiency virus 1; assay: Ratio of EC50 for recombinant HIV1 NL4-3 bearing envelope with G354E, D474N substitutions to EC50 for parental HIV1 NL4-3; format: functional
[24] = system: Human immunodeficiency virus 1; assay: Ratio of EC50 for recombinant HIV1 NL4-3 bearing envelope with G354E substitution to EC50 for parental HIV1 NL4-3; format: functional
[25] = system: Human immunodeficiency virus 1; assay: Antiviral activity against HIV1 NL4-3 infected in human MT2 cells assessed as inhibition of viral p24 antigen level at 15 uM by Western blot; format: functional; conditions: Human immunodeficiency virus 1, NL4-3, MT2
[26] = system: Human immunodeficiency virus 1; assay: Antiviral activity against HIV1 NL4-3 infected in human MT2 cells assessed as inhibition of viral p24 antigen level at 7.5 uM by Western blot; format: functional; conditions: Human immunodeficiency virus 1, NL4-3, MT2
[27] = system: Human immunodeficiency virus 1; assay: Antiviral activity against HIV1 NL4-3 infected in human MT2 cells assessed as inhibition of viral p24 antigen level at 0.5 uM by Western blot; format: functional; conditions: Human immunodeficiency virus 1, NL4-3, MT2
[28] = system: Human immunodeficiency virus 1; assay: Antiviral activity against HIV1 NL4/3BFL chimeric virus infected in human MT2 cells assessed as inhibition of viral p24 antigen level at 2 uM by Western blot; format: functional; conditions: Human immunodeficiency virus 1, NL4/3BFL
[29] = system: Human immunodeficiency virus 1; assay: Inhibition of HIV1 NL4-3 proteins incorporation into virions transfected in HEK293 cells assessed as aberrant Env protein at 15 uM by Western blot; format: functional, organism-based
[30] = target: T1, Proprotein convertase subtilisin/kexin type 6 (Rattus norvegicus) (UniProt Q63415); assay: Inhibition of rat PACE4 up to 100 uM
T1 sequence (whole entry): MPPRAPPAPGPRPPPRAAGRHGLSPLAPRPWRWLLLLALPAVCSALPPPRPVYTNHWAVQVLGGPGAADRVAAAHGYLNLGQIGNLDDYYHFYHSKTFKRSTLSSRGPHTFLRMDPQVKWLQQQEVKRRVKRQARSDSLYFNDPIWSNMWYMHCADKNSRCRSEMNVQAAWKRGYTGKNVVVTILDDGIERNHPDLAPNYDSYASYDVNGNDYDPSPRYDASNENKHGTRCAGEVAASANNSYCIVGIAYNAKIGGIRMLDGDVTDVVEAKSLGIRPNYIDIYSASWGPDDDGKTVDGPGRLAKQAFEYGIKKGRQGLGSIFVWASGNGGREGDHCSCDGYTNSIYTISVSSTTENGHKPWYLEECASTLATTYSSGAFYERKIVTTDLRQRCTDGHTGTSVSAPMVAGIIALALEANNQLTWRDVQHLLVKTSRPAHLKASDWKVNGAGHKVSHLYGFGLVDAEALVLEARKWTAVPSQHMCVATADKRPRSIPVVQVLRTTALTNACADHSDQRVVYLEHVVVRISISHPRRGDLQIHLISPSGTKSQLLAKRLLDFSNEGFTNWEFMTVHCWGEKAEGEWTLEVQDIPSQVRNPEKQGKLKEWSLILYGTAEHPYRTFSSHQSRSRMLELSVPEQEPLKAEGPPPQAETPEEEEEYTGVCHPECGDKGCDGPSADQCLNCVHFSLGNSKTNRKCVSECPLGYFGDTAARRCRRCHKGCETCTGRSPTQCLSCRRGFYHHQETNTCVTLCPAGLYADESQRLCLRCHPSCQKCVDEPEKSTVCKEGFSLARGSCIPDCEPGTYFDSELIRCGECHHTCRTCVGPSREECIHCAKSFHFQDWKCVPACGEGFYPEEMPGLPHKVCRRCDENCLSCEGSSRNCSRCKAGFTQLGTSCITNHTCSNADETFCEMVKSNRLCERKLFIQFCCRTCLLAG

Question: Which Activity [1] does the source give for `NC(=O)C(c1ccccc1)(c1ccccc1)[C@H]1CCCN(CCc2ccc3c(c2)CCO3)C1` here?
Answer: inactive

Question: What about the inhibition in vivo at 15 µM [2] of the same compound?
Answer: 99.5%

Question: And the inhibition in vivo at 15 µM [3]?
Answer: -6%

Question: What about the EC50 [4] of the same compound?
Answer: 2.7 µM

Question: What about the EC50 [5] of the same compound?
Answer: 32 µM

Question: What about the CC50 at 144 h [6] of the same compound?
Answer: 53 µM

Question: And the CC50 at 144 h [7]?
Answer: 47 µM

Question: And the selectivity ratio [8]?
Answer: 41

Question: And the selectivity ratio [9]?
Answer: 17

Question: And the selectivity ratio [10]?
Answer: 2

Question: And the EC50 [11]?
Answer: Active

Question: And the EC50 [12]?
Answer: > 32 µM

Question: What about the EC50 [13] of the same compound?
Answer: > 32 µM

Question: And the “fold change (FC)” value [14]?
Answer: >25

Question: And the “fold change (FC)” value [15]?
Answer: 4

Question: And the “fold change (FC)” value [16]?
Answer: >25

Question: And the EC50 [17]?
Answer: 1.03 µM

Question: And the EC50 [18]?
Answer: 8.6 µM

Question: What about the EC50 [19] of the same compound?
Answer: > 32 µM

Question: What about the EC50 [20] of the same compound?
Answer: > 32 µM

Question: What about the EC50 [21] of the same compound?
Answer: 6.1 µM

Question: What about the EC50 [22] of the same compound?
Answer: 0.9 µM

Question: What about the “fold change (FC)” value [23] of the same compound?
Answer: >31

Question: What about the “fold change (FC)” value [24] of the same compound?
Answer: 0.9

Question: What about the inhibition at 15 µM [25] of the same compound?
Answer: 100%

Question: What about the inhibition at 7.5 µM [26] of the same compound?
Answer: 99%

Question: What about the inhibition at 0.5 µM [27] of the same compound?
Answer: 12%

Question: What about the inhibition at 2 µM [28] of the same compound?
Answer: 2%

Question: And the Activity [29]?
Answer: Active

Question: And the Activity [30]?
Answer: inactive
